Test results as given in US9023865B2, “Compounds that are ERK inhibitors” (Merck Sharp & Dohme Corp., priority 2011, dated 2015).

What follows are compounds tested against Active Human ERK2 (hERK2) (Homo sapiens (Human), UniProt P28482) (assay: Active Human ERK2 (hERK2) Activity Assay (IMAP-FP)). Conditions: phosphorylated active hERK2, 30 μM ATP; average; read-out: ERK 2 Human average IC50.
Assay type: biochemical
Procedure, shortened: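 Phosphorylation by activated human ERK2 (0.5 nM) at 30 μM ATP, peptide substrate 900 nM unlabeled with 80 nM labeled, proceeds 60 min. IMAP beads stop the reaction; after 60 min equilibration, product is measured by fluorescence polarization.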

Chain of Active Human ERK2 (hERK2) (P28482 whole entry): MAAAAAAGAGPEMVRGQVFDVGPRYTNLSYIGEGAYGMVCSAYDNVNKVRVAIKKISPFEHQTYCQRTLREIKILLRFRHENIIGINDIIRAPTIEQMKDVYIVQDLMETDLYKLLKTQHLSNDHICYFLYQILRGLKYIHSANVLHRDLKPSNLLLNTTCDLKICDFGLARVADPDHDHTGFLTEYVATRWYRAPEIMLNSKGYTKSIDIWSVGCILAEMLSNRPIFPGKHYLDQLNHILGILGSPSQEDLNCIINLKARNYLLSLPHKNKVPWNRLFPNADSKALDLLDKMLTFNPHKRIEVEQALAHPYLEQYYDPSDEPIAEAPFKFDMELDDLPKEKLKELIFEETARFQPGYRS

Row | Structure (SMILES) | IC50
1 | Cc1cc(-c2n[nH]c3cc(NC(=O)N[C@H]4CN(C)[C@H](C(F)F)[C@@H]4c4ccccc4)ncc23)ccn1 [Example 569] | 1.48 nM
2 | Cc1cc(-c2n[nH]c3cc(NC(=O)NCc4ccc(C#N)cc4)ncc23)ccn1 [Example 445] | 3.73 nM
3 | Cc1cc(-c2n[nH]c3cc(NC(=O)NCc4ccc5[nH]cnc5c4)ncc23)ccn1 [Example 368] | 2.79 nM
4 | Cc1nc2ccc(-c3n[nH]c4cc(NC(=O)N[C@H](C)c5ccccc5)ncc34)cc2s1 [Example 87, 1-[3-(2-methyl-1,3-benzothiazol-6-yl)-1H-pyrazolo[4,3-c]pyridin-6-yl]-3-[(1R)-1-phenylethyl]urea] | 0.748 nM
5 | Cc1cc(-c2n[nH]c3cc(NC(=O)NCc4nccs4)ncc23)ccn1 [Example 436] | 2.14 nM
6 | Cc1cc(-c2n[nH]c3cc(NC(=O)NC4(C#N)CC4)ncc23)ccn1 [Example 201] | 92 nM
7 | COC(=O)[C@@H](NC(=O)Nc1cc2[nH]nc(-c3ccnc(C)c3)c2cn1)C(C)C [Example 460] | 160 nM
8 | Cc1cc(-c2n[nH]c3cc(NC(=O)N[C@H]4CN(C)C[C@@H]4C4CCCCC4)ncc23)ccn1 [Example 208] | 6.73 nM
9 | Cc1cc(-c2n[nH]c3cc(NC(=O)NCc4ccccn4)ncc23)ccn1 [Example 479] | 3.02 nM
10 | Cc1cc(-c2n[nH]c3cc(NC(=O)NCC(c4ccccn4)N4CCOCC4)ncc23)ccn1 (centres unmarked) [Example 384] | 24.7 nM
11 | Cc1cc(-c2n[nH]c3cc(NC(=O)NCC(F)(F)CO)ncc23)ccn1 [Example 190] | 3.81 nM
12 | Cc1cc(-c2n[nH]c3cc(NC(=O)N[C@H](C(=O)O)C(C)C)ncc23)ccn1 [Example 452] | 2240 nM
13 | CCn1cc(CNC(=O)Nc2cc3[nH]nc(-c4ccnc(C)c4)c3cn2)cn1 [Example 471] | 10.2 nM
14 | CN1CC[C@H](CNC(=O)Nc2cc3[nH]nc(-c4ccc(F)cc4)c3cn2)C1 [Example 322] | 1.17 nM
15 | Cc1cc(-c2n[nH]c3cc(NC(=O)NCc4nc(C)cs4)ncc23)ccn1 [Example 477] | 2.61 nM
16 | Cc1cc(-c2n[nH]c3cc(NC(=O)NC4CCc5[nH]ncc5C4)ncc23)ccn1 (centres unmarked) [Example 506] | 0.805 nM
17 | C[C@@H](NC(=O)Nc1cc2[nH]nc(C(=O)NCC3(N(C)C)CCC3)c2cn1)c1ccccc1 [Example 119] | 211 nM
18 | Cc1cc(-c2n[nH]c3cc(NC(=O)NCc4cc5ccccc5cn4)ncc23)ccn1 [Example 395] | 7.66 nM
19 | Cc1cc(-c2n[nH]c3cc(NC(=O)NCCC(=O)Nc4ccccc4Br)ncc23)ccn1 [Example 399] | 2.06 nM
20 | Cc1cc(-c2n[nH]c3cc(NC(=O)NCc4cccc(-c5ccccc5)c4)ncc23)ccn1 [Example 333] | 3.38 nM
21 | COc1ccc(-c2n[nH]c3cc(NC(=O)NCc4ccc(F)cc4)ncc23)cc1 [Example 677] | 3.67 nM
22 | COc1ccc(CNC(=O)Nc2cc3[nH]nc(-c4ccc(F)cc4)c3cn2)cc1OC [Example 33, 1-(3,4-dimethoxybenzyl)-3-(3-(4-fluorophenyl)-1H-pyrazolo[4,3-c]pyridin-6-yl)urea] | 15.2 nM

Row | Structure (SMILES) | IC50
23 | C[C@@H](NC(=O)Nc1cc2[nH]nc(C(F)F)c2cn1)c1ccc(F)cc1 [Example 669] | 21.6 nM
24 | Cc1cc(-c2n[nH]c3cc(NC(=O)N[C@H](C)Cc4ccccc4)ncc23)ccn1 [Example 606] | 3.42 nM
25 | Cc1cc(-c2n[nH]c3cc(NC(=O)NC4(c5ccncc5)CCC4)ncc23)ccn1 [Example 352] | 30.2 nM
26 | CC[C@@H](NC(=O)Nc1cc2[nH]nc(-c3ccnc(C)c3)c2cn1)c1ccc(Cl)cc1 [Example 414] | 0.755 nM
27 | Cc1cc(-c2n[nH]c3cc(NC(=O)NC4(c5ccncc5)CC4)ncc23)ccn1 [Example 356] | 130 nM
28 | COC[C@@H](NC(=O)Nc1cc2[nH]nc(-c3ccc4nnn(C)c4c3)c2cn1)c1ccccc1 [Example 697] | 0.221 nM
29 | COC[C@H](NC(=O)Nc1cc2[nH]nc(-c3cnn(C)c3)c2cn1)c1ccccc1 [Example 600, 1-[(1R)-2-methoxy-1-phenylethyl]-3-[3-(1-methyl-1H-pyrazol-4-yl)-1H-pyrazolo[4,3-c]pyridin-6-yl]urea] | 31.9 nM
30 | O=C(NCc1ccc(F)cc1)Nc1cc2[nH]nc(C3CC3)c2cn1 [Example 140, 1-(3-cyclopropyl-1H-pyrazolo[4,3-c]pyridin-6-yl)-3-(4-fluorobenzyl)urea] | 23.5 nM
31 | Cc1cc(-c2n[nH]c3cc(NC(=O)NC4(c5ccc(Cl)cc5)CC4)ncc23)ccn1 [Example 85, 1-[1-(4-chlorophenyl)cyclopropyl]-3-[3-(2-methylpyridin-4-yl)-1H-pyrazolo[4,3-c]pyridin-6-yl]urea] | 29.8 nM
32 | Cc1cc(-c2n[nH]c3cc(NC(=O)N[C@H]4CN[C@H](c5ccccc5)C4)ncc23)ccn1 [Example 374] | 351 nM
33 | COc1ccc(C2(NC(=O)Nc3cc4[nH]nc(-c5ccnc(C)c5)c4cn3)CC2)cc1 [Example 359] | 9.27 nM
34 | CCCCNC(=O)Nc1cc2[nH]nc(C3CCC3)c2cn1 [Example 143, 1-butyl-3-(3-cyclobutyl-1H-pyrazolo[4,3-c]pyridin-6-yl)urea] | 39.7 nM
35 | COCCNC(=O)Nc1cc2[nH]nc(-c3ccccc3)c2cn1 [Example 627] | 6.09 nM
36 | Cc1cc(-c2n[nH]c3cc(NC(=O)NC(C)(C)c4ccc(Cl)cc4)ncc23)ccn1 [Example 70, 1-[1-(4-chlorophenyl)-1-methylethyl]-3-[3-(2-methylpyridin-4-yl)-1H-pyrazolo[4,3-c]pyridin-6-yl]urea] | 10.2 nM
37 | Cc1cc(-c2n[nH]c3cc(NC(=O)NCc4nncs4)ncc23)ccn1 [Example 438] | 6.6 nM
38 | Cc1cc(-c2n[nH]c3cc(NC(=O)N[C@H](C)c4ccc(Cl)c(C)c4)ncc23)ccn1 [Example 341] | 2.91 nM
39 | COCCNC(=O)Nc1ncc2c(-c3ccnc(C4CC4)c3)n[nH]c2c1F [Example 610] | 3.12 nM
40 | Cc1cc(-c2n[nH]c3cc(NC(=O)N[C@@H]4C[C@H]4c4ccccc4)ncc23)ccn1 [Example 583] | 0.917 nM
41 | Cc1cc(-c2n[nH]c3cc(NC(=O)Nc4noc5ccccc45)ncc23)ccn1 [Example 337] | 1.4 nM
42 | Cc1cc(-c2n[nH]c3cc(NC(=O)N[C@H]4CN(C)C[C@@H]4C)ncc23)ccn1 [Example 205] | 15.1 nM
43 | Cc1cc(-c2n[nH]c3cc(NC(=O)N[C@H]4CN(C)C[C@@H]4F)ncc23)ccn1 [Example 328, 1-((3S,4S)-4-fluoro-1-methylpyrrolidin-3-yl)-3-(3-(2-methylpyridin-4-yl)-1H-pyrazolo[4,3-c]pyridin-6-yl)urea] | 1.57 nM
44 | Cc1cc(-c2n[nH]c3cc(NC(=O)NC(CO)c4cccnc4)ncc23)ccn1 (centres unmarked) [Example 336] | 1.03 nM

Row | Structure (SMILES) | IC50
45 | COc1cc(-c2n[nH]c3cc(NC(=O)N[C@H](C)c4ccc(F)cc4)ncc23)ccn1 [Example 310] | 6.52 nM
46 | CC(C)CC(O)CNC(=O)c1n[nH]c2cc(NC(=O)N[C@H](C)c3ccccc3)ncc12 (some centres unmarked) [Example 135] | 14.6 nM
47 | C[C@@H](NC(=O)Nc1cc2[nH]nc(-c3ccnc(N4CCOCC4)c3)c2cn1)c1ccc(F)cc1 [Example 281] | 1.91 nM
48 | Cc1cc(-c2n[nH]c3cc(NC(=O)N[C@@H](C)c4ccc(C#N)cc4)ncc23)ccn1 [Example 233] | 42.5 nM
49 | O=C(Nc1ncc2c(-c3ccncc3)n[nH]c2c1F)N[C@H](CO)c1ccccc1 [Example 548] | 0.315 nM
50 | CCNC(=O)Nc1cc2[nH]nc(C3CC3)c2cn1 [Example 157] | 253 nM
51 | CC[C@H](CO)NC(=O)Nc1cc2[nH]nc(-c3ccnc(C)c3)c2cn1 [Example 204] | 24.1 nM
52 | Cc1cc(-c2n[nH]c3cc(NC(=O)NCCc4nc5ccccc5n4C)ncc23)ccn1 [Example 382] | 6.26 nM
53 | CC1=NOC(C)(CNC(=O)Nc2cc3[nH]nc(-c4ccnc(C)c4)c3cn2)C1 (centres unmarked) [Example 192] | 21.7 nM
54 | Cc1cc(-c2n[nH]c3cc(NC(=O)N[C@H]4CN(C)C[C@@H]4c4ccccc4C)ncc23)ccn1 [Example 216, 1-((3R,4S)-1-methyl-4-(o-tolyl)pyrrolidin-3-yl)-3-(3-(2-methylpyridin-4-yl)-1H-pyrazolo[4,3-e]pyridin-6-yl)urea] | 66.3 nM
55 | Cc1cc(-c2n[nH]c3cc(NC(=O)NCC4(c5ccc(F)cc5)CC4)ncc23)ccn1 [Example 269] | 2.81 nM
56 | Cc1cc(-c2n[nH]c3cc(NC(=O)N[C@@H](c4ccccc4)C4(O)CCCC4)ncc23)ccn1 [Example 531] | 0.545 nM
57 | O=C(Nc1cc2[nH]nc(C(F)F)c2cn1)N[C@H](COCC1CC1)c1ccccc1 [Example 693] | 21.4 nM
58 | C[C@@H](NC(=O)Nc1cc2[nH]nc(-c3ccc(C#N)nc3)c2cn1)c1ccc(F)cc1 [Example 254] | 4.59 nM
59 | O=C(NCc1ncco1)Nc1cc2[nH]nc(-c3ccc(F)cc3)c2cn1 [Example 221] | 4.49 nM
60 | Cc1cc(-c2n[nH]c3cc(NC(=O)N[C@@H]4CCCc5cccnc54)ncc23)ccn1 [Example 262, 1-[3-(2-methylpyridin-4-yl)-1H-pyrazolo[4,3-c]pyridin-6-yl]-3-[(8R)-5,6,7,8-tetrahydroquinolin-8-yl]urea] | 1.25 nM
61 | Cc1cc(-c2n[nH]c3cc(NC(=O)NC(C)CO)ncc23)ccn1 (centres unmarked) [Example 200] | 25.6 nM
62 | COC[C@@H](NC(=O)Nc1cc2[nH]nc(-c3ccc(-n4ccnn4)cc3)c2cn1)c1ccc(F)cc1 [Example 307] | 1.75 nM
63 | C[C@@H](NC(=O)Nc1cc2[nH]nc(-c3cc[n+]([O-])cc3)c2cn1)c1ccccc1 [Example 93, 1-[3-(1-oxidopyridin-4-yl)-1H-pyrazolo[4,3-c]pyridin-6-yl]-3-[(1R)-1-phenylethyl]urea] | 0.383 nM
64 | Cc1cc(-c2n[nH]c3cc(NC(=O)NCc4ncc(F)cc4F)ncc23)ccn1 [Example 450] | 1.91 nM
65 | C[C@@H](NC(=O)Nc1cc2[nH]nc(-c3cnn(C)c3)c2cn1)c1ccccc1 [Example 29, 1-[3-(1-methyl-1H-pyrazol-4-yl)-1H-pyrazolo[4,3-c]pyridin-6-yl]-3-[(1R)-1-phenylethyl]urea] | 0.334 nM

Same assay, conditions: read-out: AERK2 IC50 (Active human ERK2 Activity Assay)

Row | Structure (SMILES) | IC50
66 | Cc1nc2ccc(-c3n[nH]c4cc(NC(=O)N[C@H](C)c5ccccc5)ncc34)cc2s1 [Example 87, 1-[3-(2-methyl-1,3-benzothiazol-6-yl)-1H-pyrazolo[4,3-c]pyridin-6-yl]-3-[(1R)-1-phenylethyl]urea] | 0.2 to 1.7 nM
67 | C[C@@H](NC(=O)Nc1cc2[nH]nc(-c3cc[n+]([O-])cc3)c2cn1)c1ccccc1 [Example 93, 1-[3-(1-oxidopyridin-4-yl)-1H-pyrazolo[4,3-c]pyridin-6-yl]-3-[(1R)-1-phenylethyl]urea] | 0.2 to 1.7 nM
68 | C[C@@H](NC(=O)Nc1cc2[nH]nc(-c3cnn(C)c3)c2cn1)c1ccccc1 [Example 29, 1-[3-(1-methyl-1H-pyrazol-4-yl)-1H-pyrazolo[4,3-c]pyridin-6-yl]-3-[(1R)-1-phenylethyl]urea] | 0.2 to 1.7 nM
